From PMC6325233, “A Novel Actin Binding Drug with In Vivo Efficacy” (Antimicrobial Agents and Chemotherapy, 2018)

How the values were obtained:
Format in all cases: cell-based
[1] = tested on: Candida albicans strain ATCC 66027; assay: Hyphal induction (morphology switching) assay; settings: for % hyphae / % yeast: 1 µg/ml
Protocol: The hyphal induction assay was performed as previously reported with minor modifications ([58]). Candida albicans strain ATCC 66027 was grown in yeast extract-peptone-dextrose (YPD) medium at 30°C for 48 h to reach saturation with an OD600 of 17 to 19. Cells were diluted into fresh Spider medium (1% nutrient broth, 1% mannitol, 0.2% K2HPO4) to obtain an OD600 of 0.05 (∼0.5 × 10^6 to 1 × 10^6 cells/ml) and incubated at 37°C with shaking to induce hyphal formation. Immediately prior to the 37°C incubation, occidiofungin (1 µg/ml; 0.5× MIC) or an equal volume of DMSO was added to the cultures. Aliquots were removed at 0-, 1-, 2-, 4-, and 6-h time points and fixed in 3.7% formaldehyde for later analysis of cell morphology by light microscopy. More than 200 cells were examined for each time point, and cells were scored as having either a yeast or filamentous form, with cells showing any outgrowth considered filamentous. DNA segregation assays were performed using a mid-log culture of S. cerevisiae (BY4743, diploid) and C. albicans (ATCC 66027). The cultures were diluted in fresh YPD medium to obtain OD600s of 0.095 (∼1 × 10^6 to 1.5 × 10^6 cells/ml) and 0.05 (0.5 × 10^6 to 0.8 × 10^6 cells/ml), respectively. A blank vehicle control (DMSO) or occidiofungin (1 µg/ml; 0.5× MIC) was added, and the cultures were placed at 30°C with shaking. Samples were removed at 0.5, 1, and 2 h, and the cells fixed by adding formaldehyde (3.7%). The cells were washed in phosphate-buffered saline (PBS) and permeabilized by adding an equivalent volume of PBS containing 0.2% Triton X-100 for 30 min at room temperature. The cells were washed thrice in PBS, added to concanavalin A-treated glass slides, and overlaid with Vectashield plus DAPI (4′,6-diamidino-2-phenylindole). Images were viewed using a Nikon 50i fluorescence microscope with a 100× oil immersion objective and DAPI filter. Cells were scored on the basis of bud morphology and DNA location. One-way analyses of variance (ANOVAs) with post hoc Tukey’s honestly significant difference (HSD) testing were used to determine statistically significant differences in the distributions between treated and untreated cells. In addition, FM-464 uptake assays were used to observe endocytosis. Three 1-ml aliquots of S. pombe (OD600 of 0.6 to 0.8) were treated with 1 μl DMSO, 0.5 μg/ml (0.5× MIC), or 1 μg/ml (1× MIC) of native occidiofungin for 30 min at 30°C. The cells were washed thrice with PBS and resuspended in YPD medium containing […] FM-464 (Thermo Fisher Scientific). The cells were incubated for 60 min at 30°C, followed by two washes in PBS before visualizing on an Olympus FV1000 confocal microscope with a 40×/0.9 dry objective. Lastly, actin polymerization and depolymerization assays were performed using the Actin polymerization biochem kit (catalog number BK003; Cytoskeleton, Inc.) according to the manufacturer’s instructions.

[2] = tested on: Trichophyton mentagrophytes 28641; assay: MIC susceptibility testing; settings: CLSI M38-A2; 96 hours
Protocol: (§1) Occidiofungin was purified from a liquid culture of Burkholderia contaminans MS14 as previously described ([21]). MIC susceptibility testing was performed according to the CLSI M27-A3 and M38-A2 standards for the susceptibility testing of yeasts and filamentous fungi, respectively. S. cerevisiae deletion mutants were obtained from the commercially available BY4741 deletion library (Thermo Scientific).

[3] = tested on: Trichophyton rubrum 28658; assay: MIC susceptibility testing; settings: CLSI M38-A2; 96 hours
Protocol: as §1

[4] = tested on: Trichophyton mentagrophytes 28556; assay: MIC susceptibility testing; settings: CLSI M38-A2; 96 hours
Protocol: as §1

Candida tropicalis 28478 = assay: MIC susceptibility testing; settings: CLSI M27-A3
Protocol: as §1

Candida albicans 28200 = assay: MIC susceptibility testing; settings: CLSI M27-A3
Protocol: as §1

[5] = tested on: Aspergillus fumigatus 28436; assay: MIC susceptibility testing; settings: CLSI M38-A2
Protocol: as §1

Candida auris MRL# 35646 = assay: MIC susceptibility testing; settings: CLSI M27-A3; 24 hours
Protocol: as §1

Candida glabrata 28271 = assay: MIC susceptibility testing; settings: CLSI M27-A3
Protocol: as §1

Fusarium solani 18749 = assay: MIC susceptibility testing; settings: CLSI M38-A2
Protocol: as §1

[6] = tested on: Trichophyton rubrum 28659; assay: MIC susceptibility testing; settings: CLSI M38-A2; 96 hours
Protocol: as §1

[7] = tested on: Candida parapsilosis 28364; assay: MIC susceptibility testing; settings: CLSI M27-A3
Protocol: as §1

Candida auris MRL# 35651 = assay: MIC susceptibility testing; settings: CLSI M27-A3; 24 hours
Protocol: as §1

[8] = T=1hr, replicate 1, untreated 51.7/48.3
[9] = T=1hr, replicate 2, untreated 72.7/27.3
[10] = T=1hr, replicate 3, untreated 43.6/56.4
[11] = T=2hr, replicate 1, untreated 23.4/76.6
[12] = T=2hr, replicate 2, untreated 15.6/84.4
[13] = T=2hr, replicate 3, untreated 14.2/85.8
[14] = T=4hr, replicate 1, untreated 7.1/92.9
[15] = T=4hr, replicate 2, untreated 17.4/82.6
[16] = T=4hr, replicate 3, untreated 13.2/86.8
[17] = T=6hr, replicate 2, untreated 52.2/47.8
[18] = T=6hr, replicate 3, untreated 21.1/78.9

Substance: occidiofungin
- % hyphae ([1]; T=0hr, replicate 1): 0%
- % yeast ([1]; T=0hr, replicate 1): 100%
- % hyphae ([1]; T=0hr, replicate 2): 0%
- % yeast ([1]; T=0hr, replicate 2): 100%
- % hyphae ([1]; T=0hr, replicate 3): 0%
- % yeast ([1]; T=0hr, replicate 3): 100%
- % hyphae [1, 8]: 0%
- % yeast [1, 8]: 100%
- % hyphae [1, 9]: 0%
- % yeast [1, 9]: 100%
- % hyphae [1, 10]: 0%
- % yeast [1, 10]: 100%
- % hyphae [1, 11]: 0%
- % yeast [1, 11]: 100%
- % hyphae [1, 12]: 0%
- % yeast [1, 12]: 100%
- % hyphae [1, 13]: 0%
- % yeast [1, 13]: 100%
- % hyphae [1, 14]: 0.5%
- % yeast [1, 14]: 99.5%
- % hyphae [1, 15]: 0%
- % yeast [1, 15]: 100%
- % hyphae [1, 16]: 0.2%
- % yeast [1, 16]: 99.8%
- % hyphae [1, 17]: 0%
- % yeast [1, 17]: 100%
- % hyphae [1, 18]: 0%
- % yeast [1, 18]: 100%
- effect on hyphal formation ([1]; subinhibitory concentration (1 µg/ml; 0.5× MIC)): blocked hyphal formation
- MIC, 80% inhibition [2]: 1 µg/mL
- MIC, 100% inhibition [2]: 2 µg/mL
- MIC, 80% inhibition [3]: 1 µg/mL
- MIC, 100% inhibition [3]: 2 µg/mL
- MIC, 80% inhibition [4]: 1 µg/mL
- MIC, 100% inhibition [4]: 2 µg/mL
- MIC, 50% inhibition (Candida tropicalis 28478; 24 hours): 4 µg/mL
- MIC, 100% inhibition (Candida tropicalis 28478; 24 hours): 8 µg/mL
- MIC, 50% inhibition (Candida tropicalis 28478; 48 hours): 4 µg/mL
- MIC, 100% inhibition (Candida tropicalis 28478; 48 hours): 8 µg/mL
- MIC, 50% inhibition (Candida albicans 28200; 24 hours): 4 µg/mL
- MIC, 100% inhibition (Candida albicans 28200; 24 hours): 8 µg/mL
- MIC, 50% inhibition (Candida albicans 28200; 48 hours): 4 µg/mL
- MIC, 100% inhibition (Candida albicans 28200; 48 hours): 8 µg/mL
- MIC, 50% inhibition ([5]; 24 hours): 2 µg/mL
- MIC, 100% inhibition ([5]; 24 hours): 4 µg/mL
- MIC, 50% inhibition ([5]; 48 hours): 2 µg/mL
- MIC, 100% inhibition ([5]; 48 hours): 4 µg/mL
- MIC, 50% inhibition (Candida auris MRL# 35646): 0.125 µg/mL
- MIC, 100% inhibition (Candida auris MRL# 35646): 0.25 µg/mL
- MIC, 50% inhibition (Candida glabrata 28271; 24 hours): 4 µg/mL
- MIC, 100% inhibition (Candida glabrata 28271; 24 hours): 8 µg/mL
- MIC, 50% inhibition (Candida glabrata 28271; 48 hours): 4 µg/mL
- MIC, 100% inhibition (Candida glabrata 28271; 48 hours): 8 µg/mL
- MIC, 50% inhibition (Fusarium solani 18749; 24 hours): 2 µg/mL
- MIC, 100% inhibition (Fusarium solani 18749; 24 hours): 4 µg/mL
- MIC, 50% inhibition (Fusarium solani 18749; 48 hours): 2 µg/mL
- MIC, 100% inhibition (Fusarium solani 18749; 48 hours): 4 µg/mL
- MIC, 80% inhibition [6]: 1 µg/mL
- MIC, 100% inhibition [6]: 2 µg/mL
- MIC, 50% inhibition ([7]; 24 hours): 4 µg/mL
- MIC, 100% inhibition ([7]; 24 hours): 8 µg/mL
- MIC, 50% inhibition ([7]; 48 hours): 4 µg/mL
- MIC, 100% inhibition ([7]; 48 hours): 8 µg/mL
- MIC, 50% inhibition (Candida auris MRL# 35651): 0.125 µg/mL
- MIC, 100% inhibition (Candida auris MRL# 35651): 0.25 µg/mL
